According to patent US20250223276A1, “Substituted Pyrrolidinyl And Piperidinyl Compounds And Related Methods Of Treatment” (Alkermes, Inc., priority 2022, published 2025):

target: T1, human orexin-2 receptor (OX2R) (Homo sapiens, UniProt O43614); assay: Human OX2R IP1 assay; format: cell-based; settings: T-Rex CHO cells stably overexpressing human OX2R; IP1 (inositol monophosphate) accumulation, HTRF; 1 hr at 37 degrees C
T1 construct: expressed in transfected cells
T1 sequence (O43614 1-444): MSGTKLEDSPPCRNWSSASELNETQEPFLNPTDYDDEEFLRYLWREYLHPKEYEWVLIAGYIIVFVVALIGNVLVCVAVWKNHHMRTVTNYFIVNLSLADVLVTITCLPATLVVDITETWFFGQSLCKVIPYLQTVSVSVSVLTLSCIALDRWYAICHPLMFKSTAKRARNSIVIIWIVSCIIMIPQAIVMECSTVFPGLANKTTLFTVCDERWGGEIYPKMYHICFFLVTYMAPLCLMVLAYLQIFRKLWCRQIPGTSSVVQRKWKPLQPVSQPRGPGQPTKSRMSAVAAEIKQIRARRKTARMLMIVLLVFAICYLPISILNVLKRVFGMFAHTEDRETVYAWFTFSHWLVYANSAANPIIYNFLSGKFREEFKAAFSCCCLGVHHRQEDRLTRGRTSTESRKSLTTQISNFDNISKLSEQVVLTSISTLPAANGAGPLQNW
Method: T-Rex CHO cells stably overexpressing the human orexin-2 receptor (OX2R) are induced overnight with 1 μg/mL of doxycycline in a T225 flask. 24 hours post induction, cells are lifted with accutase and plated into a 384-well proxy plate at 30,000 cells/well. Cells are then treated with different test compounds in 1× stimulation buffer containing 10 mM Hepes, 1 mM CaCl2), 0.5 mM MgCl2, 4.2 mM KCl, 146 mM NaCl, 5.5 mM glucose, and 50 mM LiCl, pH 7.4, for 1 hr at 37 degrees C. Following incubation, the reaction is terminated by the addition of detection mix, which is composed of IP1-d2 and anti-IP1-cryptate diluted in lysis buffer as well as 1× stimulation buffer. The plates are allowed to incubate for 1 hour at room temperature and are then read in the En Vision® multimode plate reader, measuring inositol phosphate levels.
Cisbio IP1 is a cell-based functional assay quantifying the accumulation of inositol monophosphate (IP), a metabolite released as a result of orexin 2 receptor activation through the phospholipase C-Gq signaling pathway. This is a competitive immunoassay in which the IP1 produced by the cells upon receptor activation competes with the IP1 analog coupled to the d2 fluorophore (acceptor) for binding to an anti-IP1 monoclonal antibody labeled with Eu cryptate (donor). The measured HTRF-FRET based signal is inversely proportional to the IP1 concentration produced.
The EC50 values reported in Table 2 were obtained according to the human OX2R IP1 assay described above. Data are the mean EC50 values±S.E.M.

First: O=C(NC1CCN(c2cccnn2)CC1CO[C@H]1CC[C@@H](c2cccc(F)c2)CC1)C(F)(F)F (stereo partly drawn) [Compound 67]
Second: O=S(=O)(N[C@H]1CCN(c2cccnn2)C[C@H]1CO[C@H]1CC[C@@H](c2cccc(F)c2)CC1)C(F)F [Compound 11]
The EC50 of the first is higher: over 1000 nM for the first, under 100 nM for the second.

`CN(C)S(=O)(=O)N[C@H]1CCN(C(=O)[C@@H]2CCOC2)C[C@H]1CO[C@H]1CC[C@@H](c2cccc(F)c2)CC1` [Compound 5] and `CN(C)S(=O)(=O)N[C@H]1CCN(C(=O)[C@H]2C[C@H](F)C2)C[C@H]1CO[C@H]1CC[C@@H](c2cccc(F)c2)CC1` [Compound 54] cannot be ordered by EC50: under 100 nM for the first, under 100 nM for the second.

`CN(C)S(=O)(=O)N[C@H]1CCN(C(=O)N2CCOCC2)C[C@H]1CO[C@H]1CC[C@@H](c2cccc(F)c2)CC1` [Compound 55] and `CN(C)S(=O)(=O)N[C@H]1CCN(C(=O)N2CCC(F)(F)C2)C[C@H]1CO[C@H]1CC[C@@H](c2cccc(F)c2)CC1` [Compound 61] cannot be ordered by EC50: under 100 nM for the first, under 100 nM for the second.

First: O=S(=O)(N[C@H]1CCN(c2cccnn2)C[C@H]1CO[C@H]1CC[C@@H](c2cccc(F)c2)CC1)N1CCCC1 [Compound 26]
Second: O=S(=O)(N[C@H]1CCN(c2cccnn2)C[C@H]1CO[C@H]1CC[C@@H](c2cccc(F)c2)CC1)N1CCC1 [Compound 8]
The EC50 of the first is higher: over 1000 nM for the first, 100 to 1000 nM for the second. The second is the more potent here.

First: CN(C1CC1)S(=O)(=O)N[C@H]1CCN(c2cccnn2)C[C@H]1CO[C@H]1CC[C@@H](c2cccc(F)c2)CC1 [Compound 9]
Second: O=S(=O)(N[C@H]1CCN(c2cccnn2)C[C@H]1CO[C@H]1CC[C@@H](c2cccc(F)c2)CC1)C1CC1 [Compound 10]
The EC50 of the first is higher: 100 to 1000 nM for the first, under 100 nM for the second. The second is the more potent here.

Compared with `O=S(=O)(NC1CC1)N[C@H]1CCN(c2cccnn2)C[C@H]1CO[C@H]1CC[C@@H](c2cccc(F)c2)CC1` [Compound 17], `CNS(=O)(=O)N[C@H]1CCN(c2cccnn2)C[C@H]1CO[C@H]1CC[C@@H](c2cccc(F)c2)CC1` [Compound 3] is lower in EC50: 100 to 1000 nM for the first, under 100 nM for the second. The second is the more potent here.

`COC(=O)N1CC[C@H](NS(=O)(=O)N(C)C)[C@H](CO[C@H]2CC[C@@H](c3cccc(F)c3)CC2)C1` [Compound 16] and `CN1CC(OC(=O)N2CC[C@H](NS(=O)(=O)N(C)C)[C@H](CO[C@H]3CC[C@@H](c4cccc(F)c4)CC3)C2)C1` [Compound 59] cannot be ordered by EC50: over 1000 nM for the first, over 1000 nM for the second.

`CN(C)C1CN(S(=O)(=O)N[C@H]2CCN(c3cccnn3)C[C@H]2CO[C@H]2CC[C@@H](c3cccc(F)c3)CC2)C1` [Compound 30] and `CC1CN(S(=O)(=O)N[C@H]2CCN(c3cccnn3)C[C@H]2CO[C@H]2CC[C@@H](c3cccc(F)c3)CC2)C1` [Compound 23] cannot be ordered by EC50: over 1000 nM for the first, over 1000 nM for the second.

`CN(C)S(=O)(=O)N[C@H]1CCN(C(=O)C2(F)CCC2)C[C@H]1CO[C@H]1CC[C@@H](c2cccc(F)c2)CC1` [Compound 4] and `CN(C)S(=O)(=O)N[C@H]1CCN(C(=O)C2(F)CC2)C[C@H]1CO[C@H]1CC[C@@H](c2cccc(F)c2)CC1` [Compound 47] cannot be ordered by EC50: under 100 nM for the first, under 100 nM for the second.

First: CN(C)S(=O)(=O)N[C@H]1CCN(C(=O)c2cncn2C)C[C@H]1CO[C@H]1CC[C@@H](c2cccc(F)c2)CC1 [Compound 46]
Second: CN(C)S(=O)(=O)N[C@H]1CCN(C(=O)C2CNC(=O)C2)C[C@H]1CO[C@H]1CC[C@@H](c2cccc(F)c2)CC1 (stereo partly drawn) [Compound 52]
The EC50 of the first is lower: 100 to 1000 nM for the first, over 1000 nM for the second. The first is the more potent here.

`CC(C)N(C)[C@@H]1CCN(S(=O)(=O)N[C@H]2CCN(c3cccnn3)C[C@H]2CO[C@H]2CC[C@@H](c3cccc(F)c3)CC2)C1` [Compound 57] and `O=S(=O)(N[C@H]1CCN(c2cccnn2)C[C@H]1CO[C@H]1CC[C@@H](c2cccc(F)c2)CC1)N1CC(C(F)F)C1` [Compound 25] cannot be ordered by EC50: over 1000 nM for the first, over 1000 nM for the second.

Compared with `CCN(CC)S(=O)(=O)N[C@H]1CCN(c2cccnn2)C[C@H]1CO[C@H]1CC[C@@H](c2cccc(F)c2)CC1` [Compound 14], `CCS(=O)(=O)N[C@H]1CCN(c2cccnn2)C[C@H]1CO[C@H]1CC[C@@H](c2cccc(F)c2)CC1` [Compound 19] is lower in EC50: over 1000 nM for the first, under 100 nM for the second. The second is the more potent here.

`COCCN(C)S(=O)(=O)N[C@H]1CCN(c2cccnn2)C[C@H]1CO[C@H]1CC[C@@H](c2cccc(F)c2)CC1` [Compound 63] and `CN1CCN(S(=O)(=O)N[C@H]2CCN(c3cccnn3)C[C@H]2CO[C@H]2CC[C@@H](c3cccc(F)c3)CC2)CC1` [Compound 24] cannot be ordered by EC50: over 1000 nM for the first, over 1000 nM for the second.

`O=S(=O)(N[C@H]1CCN(c2cccnn2)C[C@H]1CO[C@H]1CC[C@@H](c2cccc(F)c2)CC1)N1CC2(COC2)C1` [Compound 34] and `O=S(=O)(N[C@H]1CCN(c2cccnn2)C[C@H]1CO[C@H]1CC[C@@H](c2cccc(F)c2)CC1)N1CCOCC1` [Compound 15] cannot be ordered by EC50: over 1000 nM for the first, over 1000 nM for the second.

`O=S(=O)(N[C@H]1CCN(c2cccnn2)C[C@H]1CO[C@H]1CC[C@@H](c2cccc(F)c2)CC1)N1CCC(F)(F)C1` [Compound 29] and `CN(C)S(=O)(=O)N[C@H]1CCN(C(=O)OCC2(F)CCC2)C[C@H]1CO[C@H]1CC[C@@H](c2cccc(F)c2)CC1` [Compound 66] cannot be ordered by EC50: over 1000 nM for the first, over 1000 nM for the second.
